What was measured:
[1] = Solubility by filtration and LC/MS; type: physicochemical; settings: in water (printed for Compound 74)
Procedure: To determine whether a compound is soluble in a solution, the solution was filtered on […] polytetrafluoroethylene filters (Whatman Inc. Clifton, N.J., USA) and the compound concentration in the filtrate was measured by LC/MS and compared to the expected concentration. If the concentration of the compound in the filtrate was equal +/−15% to the expected concentration, the compound was judged to be soluble in the solution.
The detection of Compound 74 or Compound 50 by LC/MS was carried out using the HPLC system that consisted of a Waters Alliance quaternary gradient HPLC pump (Waters, Milford, Mass., USA) and a ZQ2000 single quadrupole mass spectrometer (Waters, Milford, Mass., USA). The column used was XTerra MS C18: 50×2.1 mm, […] column at 20° C. Samples were injected and separated under the following conditions: The mobile phase “A” consisted of 5 mM ammonium formate, 0.1% formic acid in water and mobile phase “B” consisted of 5 mM ammonium formate, 0.1% formic acid in methanol. A linear gradient was applied as follows: 0 to 1 min, 94% “A” and 6% “B”; 1 to 4 min, 6% to 100% “B”; 4 to 8 min 100% “B”; 8 to 9 min, 100% “B” to 6% “B”; 9 to 12 min, 94% “A” and 6% “B”. […] Compounds were detected at m/z equal to their respective molecular weight plus 1.

[2] = target: T1, human placental alkaline phosphatase (Homo sapiens, UniProt P05187); assay: Conversion of phosphate pro-drug by alkaline phosphatase in vitro; type: in vitro ADME; settings: 0.02 U/100 μL enzyme, 15 μM pro-drug, pH 7.4, within thirty minutes
T1 construct: purchased Sigma-Aldrich Canada Ltd
T1 sequence (P05187 23-506 limits assumed): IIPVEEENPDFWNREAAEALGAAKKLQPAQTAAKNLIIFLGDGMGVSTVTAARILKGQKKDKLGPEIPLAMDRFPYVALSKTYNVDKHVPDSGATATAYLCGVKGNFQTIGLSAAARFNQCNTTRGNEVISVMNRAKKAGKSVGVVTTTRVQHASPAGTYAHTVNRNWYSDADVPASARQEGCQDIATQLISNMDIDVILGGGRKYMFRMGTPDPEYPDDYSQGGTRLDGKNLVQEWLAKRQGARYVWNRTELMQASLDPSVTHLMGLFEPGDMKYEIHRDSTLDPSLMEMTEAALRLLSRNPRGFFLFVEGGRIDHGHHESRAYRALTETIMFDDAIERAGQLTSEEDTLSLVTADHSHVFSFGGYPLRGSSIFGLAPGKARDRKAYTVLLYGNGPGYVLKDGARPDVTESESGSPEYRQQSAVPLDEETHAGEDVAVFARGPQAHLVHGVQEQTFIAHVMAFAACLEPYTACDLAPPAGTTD
Procedure: The conversion into biologically active drug of phosphate pro-drugs by human placental alkaline phosphatase was measured in vitro using purified enzymes. Purified human placental alkaline phosphatase (Sigma-Aldrich Canada Ltd. Oakville, Ontario, Canada) was added at a concentration of 0.02 U/100 μL to a solution containing 15 μM of phosphate pro-drug, 20 mM Tris-HCl, pH 7.4 and 0.9% NaCl. The solutions were incubated for 10, 20 or 30 minutes. A solution containing 15 μM of phosphate pro-drug, 20 mM Tris-HCl, pH 7.4 and 0.9% NaCl was used a reference (time=0 minutes). To each solution, an equal volume (100 μL) of ice-cold acetonitrile was added, and then the mixture was vortexed and transferred to glass vials. A standard concentration curve of the pro-drug and the drug was prepared in 10 mM Tris-HCl, pH 7.4, 0.45% NaCl and 50% acetonitrile. All samples were immediately analyzed by LC/MS.

[3] = test system: A549 human non-small cell lung carcinoma; assay: Cell viability, cellular ATP levels (Vialight HS); type: cell-based; settings: Table 5, A549, NSCL-adrenocarinoma, tumor, ATP levels 72 h post-treatment
Text: (§1) The following cell lines were used: A549 human non-small cell lung carcinoma; C33A human cervical carcinoma; H1299 human non-small cell lung carcinoma; Hep-3B human hepatocellular carcinoma; MIA-Paca-2 human pancreatic carcinoma; PC-3 human prostatic adenocarcinoma (American Type Culture Collection, Manassas, Va., USA); HMEC normal human mammary epithelial cells; HUVEC normal human umbilical vein endothelial cells; and NHBE normal human bronchial epithelial cells (Cambrex Bio Science, Rockland, Me., USA). […] HMEC, HUVEC and NHBE cell lines were cultured in MEGM, EGM-2 and BEGM media, respectively (Cambrex Bio Science, Rockland, Me., USA). The cell lines were plated in 96-well microtitre plate at a density of 2–4×10^3 cells per well. After 16 hours, the cells were treated with various concentrations of Compound 50a or Compound 50b. Stock solutions of Compound 50a and Compound 50b, respectively, were prepared in dimethyl sulfoxide at a concentration of 5 mM. Serial dilutions were prepared in RPMI, 10% FBS and 2% DMSO and then added to the cells. The total DMSO in the cell cultures was 1%. […] The IC50s were determined using a best-fit sigmoidal dose response curve with variable slope.

[4] = test system: HMEC normal human mammary epithelial cells; assay: Cell viability, cellular ATP levels (Vialight HS); type: cell-based; settings: Table 5, breast epithelial, ATP levels 72 h post-treatment
Text: as §1

[5] = test system: HUVEC normal human umbilical vein endothelial cells; assay: Cell viability, cellular ATP levels (Vialight HS); type: cell-based; settings: Table 5, ATP levels 72 h post-treatment
Text: as §1

[6] = test system: Hep-3B human hepatocellular carcinoma; assay: Cell viability, cellular ATP levels (Vialight HS); type: cell-based; settings: Hep3B, Table 5, liver, tumor, ATP levels 72 h post-treatment
Text: as §1

[7] = test system: MIA-Paca-2 human pancreatic carcinoma; assay: Cell viability, cellular ATP levels (Vialight HS); type: cell-based; settings: Table 5, MIA-Paca-2, pancreas, tumor, ATP levels 72 h post-treatment
Text: as §1

[8] = test system: NHBE normal human bronchial epithelial cells; assay: Cell viability, cellular ATP levels (Vialight HS); type: cell-based; settings: Table 5, ATP levels 72 h post-treatment
Text: as §1

[9] = test system: PC-3 human prostatic adenocarcinoma; assay: Cell viability, cellular ATP levels (Vialight HS); type: cell-based; settings: Table 5, PC-3, prostate, tumor, ATP levels 72 h post-treatment
Text: as §1

[10] = test system: C33A human cervical carcinoma; assay: Cell viability, cellular ATP levels (Vialight HS); type: cell-based; settings: C-33-A, Table 5, C33A, cervix, tumor, ATP levels 72 h post-treatment, read-out: IC50
Text: as §1
(§2) The selected tumor cell lines included C33A human cervical carcinoma and H1299 human non-small cell lung carcinoma (American Type Culture Collection, Manassas, Va., USA). The cell lines were cultured in RPMI 1640 media supplemented with 10% FBS (Hyclone, Logan, Vt., USA), 100 U/mL penicillin, 100 μg/mL streptomycin and 2 mM L-glutamine (Invitrogen, Carlsbad, Calif., USA). The cell lines were plated in 96-well microtitre plate at a density of 2–4×10^3 cells per well. After 16 hours, the cells were treated with various concentrations of compound 66, 67, 68, 69 and 70, respectively. Stock solutions of compounds 66, 67, 68, 69 and 70 were prepared in dimethyl sulfoxide at a concentration of 5 mM. Serial dilutions were prepared in RPMI, 10% FBS and 2% DMSO and then added to the cells. The total DMSO on the cells was 1%. […] The IC50s were determined using a best-fit sigmoidal dose response curve with variable slope.

[11] = test system: H1299 human non-small cell lung carcinoma; assay: Cell viability, cellular ATP levels (Vialight HS); type: cell-based; settings: NCI-H1299, Table 5, H1299, NSCL-LC carcinoma, tumor, ATP levels 72 h post-treatment vs untreated cells, read-out: IC50
Text: as §1, §2

[12] = test system: SW480 human colon carcinoma cancer cells; assay: SW480 colon carcinoma xenograft in SCID mice; type: in vivo, CB17 SCID/SCID female mice; settings: i.v. 10 mg/kg once a day for five days
Procedure: The resultant mice are a model for a human having colon carcinoma cancer.
The SW480 human colon carcinoma cancer cells were maintained in RPMI supplemented with 10% inactivated fetal bovine serum and 1% penicillin-streptomycin-L-Glutamine, under 5% CO2 at 37° C., and passaged twice a week. The cells were grown at a confluency lower than 70% and then collected with Trypsin (Bio-Whittaker, Md., USA). The cells were then centrifuged and washed twice using phosphate buffered saline solution (PBS) and resuspended in PBS at 1×10^6 cells per 100 μl. Viability was examined by staining with Trypan Blue and only flasks with cell viability of greater than 95% were used for in vivo studies.
(§3) SW480 cells were transplanted subcutaneously into the flank of female CB 17 SCID/SCID mice. Each mouse was inoculated with a suspension of 1×10^6 tumor cells per 100 μL on day zero. The following five treatment groups of ten mice each were used: (a) a negative control group treated with intravenous (i.v.) injection of vehicle, (b) a group treated with i.v. injection of a Compound 50, (c) a group treated with i.v. injection of a Compound 50a, (d) a group treated with i.v. injection of Compound 50b, (e) a group treated with i.v. injection of Compound 74a.
(§4) Treatment started on day twelve after SW480 cells transplantation and Compounds 50, 50a, 50b and 74a were administered i.v. once daily for five consecutive days at a dose of 10, 10, 10 and 50 mg/kg, respectively. Compound 50, 50a and 50b were prepared as a working solution of 1.5 mg/mL in a vehicle solution of 20% Cremaphor EL (Sigma, St. Louis, Miss., USA), and 10% Ethanol. Compound 74a was prepared as a working solution of 5 mg/mL in a vehicle solution of 5% Dextrose (Abbot Laboratories, QC, Canada). The negative control groups were treated with vehicle solution of 20% Cremaphor EL and 10% Ethanol alone.
(§5) The mice were weighed and the tumors measured on day 12 and every 2 to 3 days after treatment commenced. Observations continued for 23 days after initial tumor implantation. The changes in body weight and in the calculated tumor volume were plotted (FIGS. 9 and 10). Statistical analysis was performed using GraphPad Prism (GraphPad Software Inc., San Diego, Calif.). Two-way ANOVA was used to determine how the treatment affected tumor growth over time. Following the two-way ANOVA, post-tests were performed using the Benferroni method to determine the statistical difference between the mean tumor-size of the two groups being compared on every day that the tumors were measured.

[13] = Body weight of SW480 tumor-bearing mice; type: in vivo, CB17 SCID/SCID female mice; settings: i.v. once daily for five days; 10 mg/kg (50, 50a, 50b), 50 mg/kg (74a)
Procedure: as §3, §4, §5

| Structure (SMILES) | solubility [1] | Conversion of pro-drug into drug Compound 50 [2] | IC50 [3] | IC50 [4] | IC50 [5] | IC50 [6] | IC50 [7] | IC50 [8] | IC50 [9] | IC50 [10] | IC50 [11] | Tumor growth compared to vehicle [12] | Change in body weight [13] |
| --- | --- | --- | --- | --- | --- | --- | --- | --- | --- | --- | --- | --- | --- |
| COc1ccc2c(c1)C1(C)C=CC(=O)C(C)(C)C1=C(OP(=O)(O)O)C2=O (racemic) [Compound 74] | ≥ 10000 µg/mL | convert a fraction of the pro-drug |  |  |  |  |  |  |  |  |  |  |  |
| COc1ccc2c(c1)[C@]1(C)C=CC(=O)C(C)(C)C1=C(O)C2=O [Compound 50b] |  |  | 580 nM | 2100 nM | 1300 nM | 770 nM | 250 nM | 1200 nM | 350 nM | 450 nM | 230 nM | significant reduction (p<0.001) | non-significant change in body weight |

From patent publication US7230139B2, “Diterpenoid compounds, compositions thereof and their use as anti-cancer or anti-fungal agents” (priority 2004, dated 2007)
